Measurements: patent US10934277B2, “Enantiomerically purified GPER agonist for use in treating disease states and conditions” (Linnaeus Therapeutics, Inc., priority 2018, dated 2021)
“And” between values parts separate entries of the source, which are not always exact repeats. Equal values may be shown once.

Experiments:
CYP1A2 = assay: Cytochrome P450 induction in hepatocytes, CYP1A2; assay type: in vitro ADME; details: hepatocytes from three different human cell lines; 1 μM, 10 μM and 100 μM
[1] = Plasma concentration of SRR G-1 in rats after oral dosing (LC-MS/MS); assay type: in vivo; details: rat, individual animals (R1-R9); for Plasma Conc.: PO 10 mg/kg, listed as SRR G-1 Free Base
Description: The results are shown in Tables 22-24 for each respectively.

YUMM1.7 melanoma cells = assay: YUMM1.7 proliferation assay (4 day growth); assay type: cell-based; details: 500 nM; for doubling compared with that seen with the vehicle / Doublings: 4 days; for Doublings / cell count after 4 days of growth (single replicates) / average cell count after 4 days of growth: starting cell number 15,000; for cell count after 4 days of growth (single replicates): 5 replicates; for average cell count after 4 days of growth: average of 5 replicates
Protocol: YUMM1.7 cells were cultured for at least 1 passage after thawing and were cultured in DMEM with 5% FBS (Invitrogen) and 1% antibiotic-antimycotic (gibco) at 37C 5% CO2. Proliferation assays were performed by plating 15,000 cells in 12-well plates with 5 replicates per condition tested. Media and drugs were refreshed on Day 2. On Day 4, cells were trypsinized using 0.25 ml 0.05% Trypsin with EDTA (Invitrogen) for 5 minutes to detach from the plate, mixed with 0.75 ml of culture media, and counted using a hemocytometer.
Starting cell numbers were 15,000.

OATP1B1 = molecular target: T1, OATP1B1 (Homo sapiens, UniProt Q9Y6L6); assay: Drug transporter fluorometric inhibition, OATP1B1; assay type: in vitro ADME
T1 sequence (Q9Y6L6 1-691): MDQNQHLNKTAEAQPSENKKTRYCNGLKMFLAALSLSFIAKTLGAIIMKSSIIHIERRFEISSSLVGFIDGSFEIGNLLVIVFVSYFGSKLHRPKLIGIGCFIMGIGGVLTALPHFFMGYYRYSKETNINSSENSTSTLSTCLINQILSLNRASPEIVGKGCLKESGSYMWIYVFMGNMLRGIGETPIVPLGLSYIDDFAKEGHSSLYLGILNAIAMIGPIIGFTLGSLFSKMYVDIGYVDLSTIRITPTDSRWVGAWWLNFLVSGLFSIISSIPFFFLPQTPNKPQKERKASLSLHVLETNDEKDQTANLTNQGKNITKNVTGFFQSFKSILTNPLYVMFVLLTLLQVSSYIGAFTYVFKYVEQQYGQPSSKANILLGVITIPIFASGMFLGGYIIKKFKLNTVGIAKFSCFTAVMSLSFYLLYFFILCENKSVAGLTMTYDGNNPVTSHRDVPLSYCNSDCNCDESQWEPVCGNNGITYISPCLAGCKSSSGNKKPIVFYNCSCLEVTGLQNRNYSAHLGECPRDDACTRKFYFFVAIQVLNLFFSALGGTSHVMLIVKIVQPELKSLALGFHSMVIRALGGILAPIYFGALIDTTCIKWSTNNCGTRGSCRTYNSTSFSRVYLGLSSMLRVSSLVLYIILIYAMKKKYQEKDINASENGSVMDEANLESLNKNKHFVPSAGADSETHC
Protocol: Drug transporter (fluorometric inhibition)
The percent of control was calculated using the following equation. The percent of inhibition was calculated by subtracting the percent of control from 100. The IC50 value (concentration causing a half-maximal inhibition of the control value) was determined by non-linear regression analysis of the concentration-response curve using the Hill equation.
Compound is the individual reading in the presence of the test compound. T1 is the mean reading in the absence of the test compound. Background (for P-gp and BCRP) is the mean reading in the presence of the highest effective concentration of the reference inhibitor. Background (for OATP1B1, OATP1B3, OAT1, OAT3, and OCT2) is the mean reading in the absence of both the test compound and the substrate.

CYP2D6 = CYP2D6 (Homo sapiens, UniProt P10635); assay: in vitro; assay type: in vitro ADME
Protocol: (§1) Cytochrome P450 Inhibition (HPLC-UV/VIS and HPLC-MS/MS detection)
(§2) Peak areas corresponding to the metabolite of each substrate were recorded. The percent of control activity was then calculated by comparing the peak area obtained in the presence of the test compound to that obtained in the absence of the test compound. Subsequently, the percent inhibition was calculated by subtracting the percent control activity from 100 for each compound. IC50 values (concentration causing a half-maximal inhibition of control values) were determined by non-linear regression analysis of the concentration-response curve using Hill equation curve fitting.

CYP2C8 = molecular target: T2, CYP2C8 (Homo sapiens, UniProt P10632); assay: in vitro; assay type: in vitro ADME
T2 sequence (P10632 1-490): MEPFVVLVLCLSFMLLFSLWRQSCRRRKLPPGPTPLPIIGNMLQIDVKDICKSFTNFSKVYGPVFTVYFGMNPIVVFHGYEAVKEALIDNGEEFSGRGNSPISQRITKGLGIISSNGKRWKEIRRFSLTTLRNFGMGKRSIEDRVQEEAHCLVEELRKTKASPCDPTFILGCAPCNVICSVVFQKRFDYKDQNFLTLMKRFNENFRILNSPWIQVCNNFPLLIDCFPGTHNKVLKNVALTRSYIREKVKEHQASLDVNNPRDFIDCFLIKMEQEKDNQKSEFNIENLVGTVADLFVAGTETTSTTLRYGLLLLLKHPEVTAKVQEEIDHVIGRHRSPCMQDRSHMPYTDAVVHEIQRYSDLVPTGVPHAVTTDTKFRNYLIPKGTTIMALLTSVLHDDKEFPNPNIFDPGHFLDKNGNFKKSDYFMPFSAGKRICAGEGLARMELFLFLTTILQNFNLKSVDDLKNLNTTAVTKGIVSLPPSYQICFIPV
Protocol: as §1, §2

CYP2C9 = CYP2C9 (Homo sapiens, UniProt P11712); assay: in vitro; assay type: in vitro ADME
Protocol: as §1, §2

Sequence of CYP2C9 (P11712 whole entry, species assumed): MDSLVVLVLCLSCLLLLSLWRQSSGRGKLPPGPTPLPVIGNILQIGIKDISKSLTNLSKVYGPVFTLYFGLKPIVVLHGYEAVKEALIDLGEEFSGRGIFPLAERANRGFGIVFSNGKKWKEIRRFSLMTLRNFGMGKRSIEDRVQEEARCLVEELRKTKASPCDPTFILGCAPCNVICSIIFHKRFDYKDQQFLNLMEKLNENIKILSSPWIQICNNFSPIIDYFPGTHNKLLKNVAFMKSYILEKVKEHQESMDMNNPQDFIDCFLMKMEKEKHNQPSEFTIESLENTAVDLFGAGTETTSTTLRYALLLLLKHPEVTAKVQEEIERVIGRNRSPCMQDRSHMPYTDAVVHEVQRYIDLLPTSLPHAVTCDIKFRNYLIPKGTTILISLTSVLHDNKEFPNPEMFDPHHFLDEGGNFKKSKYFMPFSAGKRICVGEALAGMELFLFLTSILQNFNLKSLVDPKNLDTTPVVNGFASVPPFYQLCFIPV
Sequence of CYP2D6 (P10635 whole entry, species assumed): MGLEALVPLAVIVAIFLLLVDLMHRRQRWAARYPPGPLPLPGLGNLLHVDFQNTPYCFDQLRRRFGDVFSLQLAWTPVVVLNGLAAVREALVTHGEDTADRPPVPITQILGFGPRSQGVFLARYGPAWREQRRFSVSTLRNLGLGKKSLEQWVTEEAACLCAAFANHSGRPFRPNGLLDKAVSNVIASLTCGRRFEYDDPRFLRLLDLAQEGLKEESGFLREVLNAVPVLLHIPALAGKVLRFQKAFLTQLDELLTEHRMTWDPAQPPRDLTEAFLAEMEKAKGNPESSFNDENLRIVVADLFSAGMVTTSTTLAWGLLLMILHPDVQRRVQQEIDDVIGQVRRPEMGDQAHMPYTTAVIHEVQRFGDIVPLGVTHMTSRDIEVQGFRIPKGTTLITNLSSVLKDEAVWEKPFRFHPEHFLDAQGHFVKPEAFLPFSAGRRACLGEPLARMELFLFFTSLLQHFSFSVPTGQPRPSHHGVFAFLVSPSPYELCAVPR

Row | SMILES | CYP1A2 induction (CYP1A2) | concentration at 1 h ([1]; male, plasma, po, 10 mg/kg, time 1.00 h, read-out: Plasma Conc.) | concentration at 8 h ([1]; male, plasma, po, 10 mg/kg, time 8.00 h, read-out: Plasma Conc.) | concentration at 24 h ([1]; male, plasma, po, 10 mg/kg, time 24.0 h, LLOQ 0.100 ng/mL, read-out: Plasma Conc.) | Plasma Conc. ([1]; time 0.500 h) | Plasma Conc. ([1]; time 1.00 h) | Plasma Conc. ([1]; time 2.00 h) | Plasma Conc. ([1]; time 4.00 h) | Plasma Conc. ([1]; time 8.00 h) | Plasma Conc. ([1]; time 24.0 h, LLOQ 0.100 ng/mL) | doubling compared with that seen with the vehicle (YUMM1.7 melanoma cells) | Doublings (YUMM1.7 melanoma cells) | cell count after 4 days of growth (single replicates) (YUMM1.7 melanoma cells) | average cell count after 4 days of growth (YUMM1.7 melanoma cells) | inhibition at 10 µM (OATP1B1) | inhibition at 10 µM (CYP2D6) | inhibition at 10 µM (CYP2C8) | inhibition at 10 µM (CYP2C9)
1 | CC(=O)c1ccc2c(c1)[C@@H]1C=CC[C@@H]1[C@H](c1cc3c(cc1Br)OCO3)N2 (single isomer, unassigned) [SRR G-1] | induced at both 1 μM and 10 μM in only 1 of the 3 cell lines | 3.96 ng/mL | 1.72 ng/mL | 0.127 ng/mL | 1.91 ng/mL and 2.60 ng/mL and 1.23 ng/mL | 6.03 ng/mL and 3.15 ng/mL | 2.96 ng/mL and 7.56 ng/mL and 2.71 ng/mL | 2.18 ng/mL and 4.67 ng/mL and 1.39 ng/mL | 1.58 ng/mL and 1.47 ng/mL | 0.169 ng/mL and BQL | less than 1/10 | 0.6 | 2 tens of thousands (3×) and 3 tens of thousands (2×) | 2.4 tens of thousands | 82.5% | 74.3% | 66.7% | –
2 | CC(=O)c1ccc2c(c1)[C@H]1C=CC[C@H]1[C@@H](c1cc3c(cc1Br)OCO3)N2 [RSS G-1, 1-((3aR,4S,9bS)-4-(6-bromobenzo[d][1,3]dioxol-5-yl)-3a,4,5,9b-tetrahydro-3H-cyclopenta[c]quinolin-8-yl)ethan-1-one] | induced at both 10 μM and 100 μM in 2 of the 3 cell lines | – | – | – | – | – | – | – | – | – | approximately the same number of doublings as the vehicle | 7.9 | 83 tens of thousands and 94 tens of thousands and 79 tens of thousands and 111 tens of thousands and 107 tens of thousands | 94.8 tens of thousands | 91.2% | – | – | 50.4%
